Measured values taken from PMC6199309, “A therapeutic approach to pantothenate kinase associated neurodegeneration” (Nature Communications, 2018).

Columns and labels:
Format in all cases: binding
FLT4 = target: T1, FLT4 (Homo sapiens, UniProt P35916); test: KINOMEscan; conditions: read-out: %Ctrl @ 10000nM
T1 construct: purchased DiscoverX KINOMEscan

RET = target: T2, RET (Homo sapiens, UniProt P07949); test: KINOMEscan; conditions: read-out: %Ctrl @ 10000nM
T2 construct: purchased DiscoverX KINOMEscan
T2 sequence (P07949 29-1114): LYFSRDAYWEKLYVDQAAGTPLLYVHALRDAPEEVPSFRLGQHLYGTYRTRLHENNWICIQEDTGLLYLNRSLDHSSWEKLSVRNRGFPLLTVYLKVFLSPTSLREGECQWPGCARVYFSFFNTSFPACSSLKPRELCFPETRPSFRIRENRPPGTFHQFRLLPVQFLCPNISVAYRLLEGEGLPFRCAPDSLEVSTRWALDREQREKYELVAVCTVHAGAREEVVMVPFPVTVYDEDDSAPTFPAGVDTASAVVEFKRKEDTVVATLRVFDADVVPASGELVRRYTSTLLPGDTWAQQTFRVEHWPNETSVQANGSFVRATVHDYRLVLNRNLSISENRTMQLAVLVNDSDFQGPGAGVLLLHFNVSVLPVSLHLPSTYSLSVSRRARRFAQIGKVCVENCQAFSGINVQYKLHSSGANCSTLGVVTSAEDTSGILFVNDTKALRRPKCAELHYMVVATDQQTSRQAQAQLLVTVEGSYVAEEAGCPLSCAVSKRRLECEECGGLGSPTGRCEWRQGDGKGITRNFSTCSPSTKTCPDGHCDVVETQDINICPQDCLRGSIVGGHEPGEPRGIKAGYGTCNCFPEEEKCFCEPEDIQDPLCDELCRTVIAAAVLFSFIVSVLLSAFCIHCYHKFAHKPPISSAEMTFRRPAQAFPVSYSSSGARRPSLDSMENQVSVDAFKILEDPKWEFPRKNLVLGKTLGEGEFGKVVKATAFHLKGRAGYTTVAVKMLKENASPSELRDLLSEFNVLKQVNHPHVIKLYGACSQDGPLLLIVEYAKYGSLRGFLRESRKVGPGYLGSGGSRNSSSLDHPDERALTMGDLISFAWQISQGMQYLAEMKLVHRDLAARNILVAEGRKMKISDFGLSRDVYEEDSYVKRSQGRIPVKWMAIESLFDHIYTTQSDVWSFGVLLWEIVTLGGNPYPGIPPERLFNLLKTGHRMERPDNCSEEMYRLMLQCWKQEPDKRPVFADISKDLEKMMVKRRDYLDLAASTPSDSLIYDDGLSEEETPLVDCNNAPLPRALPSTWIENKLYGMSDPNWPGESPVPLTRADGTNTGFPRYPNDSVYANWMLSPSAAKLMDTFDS

MKNK1 = target: T3, MKNK1 (Homo sapiens, UniProt Q9BUB5); test: KINOMEscan; conditions: read-out: %Ctrl @ 10000nM
T3 construct: purchased DiscoverX KINOMEscan

INSR = target: T4, INSR (Homo sapiens, UniProt P06213); test: KINOMEscan; conditions: read-out: %Ctrl @ 10000nM
T4 construct: purchased DiscoverX KINOMEscan

EGFR(L858R,T790M) = target: T5, EGFR(L858R,T790M) (Homo sapiens, UniProt P00533, L858R/T790M); test: KINOMEscan; conditions: read-out: %Ctrl @ 10000nM
T5 construct: purchased DiscoverX KINOMEscan

KIT(V559D,T670I) = target: T6, KIT(V559D,T670I) (Homo sapiens, UniProt P10721, T670I/V559D); test: KINOMEscan; conditions: read-out: %Ctrl @ 10000nM
T6 construct: purchased DiscoverX KINOMEscan

SNRK = target: T7, SNRK (Homo sapiens, UniProt Q9NRH2); test: KINOMEscan; conditions: read-out: %Ctrl @ 10000nM
T7 construct: purchased DiscoverX KINOMEscan

STK16 = target: T8, STK16 (Homo sapiens, UniProt O75716); test: KINOMEscan; conditions: read-out: %Ctrl @ 10000nM
T8 construct: purchased DiscoverX KINOMEscan
T8 sequence (O75716 whole entry): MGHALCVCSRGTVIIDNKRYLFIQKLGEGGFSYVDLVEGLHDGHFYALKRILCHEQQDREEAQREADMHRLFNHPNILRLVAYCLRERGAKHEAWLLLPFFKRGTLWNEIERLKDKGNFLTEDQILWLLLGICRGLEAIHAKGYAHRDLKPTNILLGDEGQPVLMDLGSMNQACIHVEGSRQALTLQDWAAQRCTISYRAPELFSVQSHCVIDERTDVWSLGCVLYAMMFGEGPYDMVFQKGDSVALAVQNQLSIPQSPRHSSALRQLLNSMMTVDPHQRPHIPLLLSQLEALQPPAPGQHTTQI

MYO3B = target: T9, MYO3B (Homo sapiens, UniProt Q8WXR4); test: KINOMEscan; conditions: read-out: %Ctrl @ 10000nM
T9 construct: purchased DiscoverX KINOMEscan

ANKK1 = target: T10, ANKK1 (Homo sapiens, UniProt Q8NFD2); test: KINOMEscan; conditions: read-out: %Ctrl @ 10000nM
T10 construct: purchased DiscoverX KINOMEscan

MEK2 = target: T11, MEK2 (Homo sapiens, UniProt P36507); test: KINOMEscan; conditions: read-out: %Ctrl @ 10000nM
T11 construct: purchased DiscoverX KINOMEscan

PIK3CA(E545K) = target: T12, PIK3CA(E545K) (Homo sapiens, UniProt P42336, E545K); test: KINOMEscan; conditions: read-out: %Ctrl @ 10000nM
T12 construct: purchased DiscoverX KINOMEscan

ZAP70 = target: T13, ZAP70 (Homo sapiens, UniProt P43403); test: KINOMEscan; conditions: read-out: %Ctrl @ 10000nM
T13 construct: purchased DiscoverX scanMAX; host or cells: E. coli BL21-derived host (T7 phage) or HEK-293

[1] = target: T14, ABL1(Q252H)-nonphosphorylated (Homo sapiens, UniProt P00519, Q252H); test: KINOMEscan; conditions: read-out: %Ctrl @ 10000nM
T14 construct: purchased DiscoverX KINOMEscan

LRRK2(G2019S) = target: T15, LRRK2(G2019S) (Homo sapiens, UniProt Q5S007, G2019S); test: KINOMEscan; conditions: read-out: %Ctrl @ 10000nM
T15 construct: purchased DiscoverX KINOMEscan
T15 sequence (Q5S007 whole entry G2019S): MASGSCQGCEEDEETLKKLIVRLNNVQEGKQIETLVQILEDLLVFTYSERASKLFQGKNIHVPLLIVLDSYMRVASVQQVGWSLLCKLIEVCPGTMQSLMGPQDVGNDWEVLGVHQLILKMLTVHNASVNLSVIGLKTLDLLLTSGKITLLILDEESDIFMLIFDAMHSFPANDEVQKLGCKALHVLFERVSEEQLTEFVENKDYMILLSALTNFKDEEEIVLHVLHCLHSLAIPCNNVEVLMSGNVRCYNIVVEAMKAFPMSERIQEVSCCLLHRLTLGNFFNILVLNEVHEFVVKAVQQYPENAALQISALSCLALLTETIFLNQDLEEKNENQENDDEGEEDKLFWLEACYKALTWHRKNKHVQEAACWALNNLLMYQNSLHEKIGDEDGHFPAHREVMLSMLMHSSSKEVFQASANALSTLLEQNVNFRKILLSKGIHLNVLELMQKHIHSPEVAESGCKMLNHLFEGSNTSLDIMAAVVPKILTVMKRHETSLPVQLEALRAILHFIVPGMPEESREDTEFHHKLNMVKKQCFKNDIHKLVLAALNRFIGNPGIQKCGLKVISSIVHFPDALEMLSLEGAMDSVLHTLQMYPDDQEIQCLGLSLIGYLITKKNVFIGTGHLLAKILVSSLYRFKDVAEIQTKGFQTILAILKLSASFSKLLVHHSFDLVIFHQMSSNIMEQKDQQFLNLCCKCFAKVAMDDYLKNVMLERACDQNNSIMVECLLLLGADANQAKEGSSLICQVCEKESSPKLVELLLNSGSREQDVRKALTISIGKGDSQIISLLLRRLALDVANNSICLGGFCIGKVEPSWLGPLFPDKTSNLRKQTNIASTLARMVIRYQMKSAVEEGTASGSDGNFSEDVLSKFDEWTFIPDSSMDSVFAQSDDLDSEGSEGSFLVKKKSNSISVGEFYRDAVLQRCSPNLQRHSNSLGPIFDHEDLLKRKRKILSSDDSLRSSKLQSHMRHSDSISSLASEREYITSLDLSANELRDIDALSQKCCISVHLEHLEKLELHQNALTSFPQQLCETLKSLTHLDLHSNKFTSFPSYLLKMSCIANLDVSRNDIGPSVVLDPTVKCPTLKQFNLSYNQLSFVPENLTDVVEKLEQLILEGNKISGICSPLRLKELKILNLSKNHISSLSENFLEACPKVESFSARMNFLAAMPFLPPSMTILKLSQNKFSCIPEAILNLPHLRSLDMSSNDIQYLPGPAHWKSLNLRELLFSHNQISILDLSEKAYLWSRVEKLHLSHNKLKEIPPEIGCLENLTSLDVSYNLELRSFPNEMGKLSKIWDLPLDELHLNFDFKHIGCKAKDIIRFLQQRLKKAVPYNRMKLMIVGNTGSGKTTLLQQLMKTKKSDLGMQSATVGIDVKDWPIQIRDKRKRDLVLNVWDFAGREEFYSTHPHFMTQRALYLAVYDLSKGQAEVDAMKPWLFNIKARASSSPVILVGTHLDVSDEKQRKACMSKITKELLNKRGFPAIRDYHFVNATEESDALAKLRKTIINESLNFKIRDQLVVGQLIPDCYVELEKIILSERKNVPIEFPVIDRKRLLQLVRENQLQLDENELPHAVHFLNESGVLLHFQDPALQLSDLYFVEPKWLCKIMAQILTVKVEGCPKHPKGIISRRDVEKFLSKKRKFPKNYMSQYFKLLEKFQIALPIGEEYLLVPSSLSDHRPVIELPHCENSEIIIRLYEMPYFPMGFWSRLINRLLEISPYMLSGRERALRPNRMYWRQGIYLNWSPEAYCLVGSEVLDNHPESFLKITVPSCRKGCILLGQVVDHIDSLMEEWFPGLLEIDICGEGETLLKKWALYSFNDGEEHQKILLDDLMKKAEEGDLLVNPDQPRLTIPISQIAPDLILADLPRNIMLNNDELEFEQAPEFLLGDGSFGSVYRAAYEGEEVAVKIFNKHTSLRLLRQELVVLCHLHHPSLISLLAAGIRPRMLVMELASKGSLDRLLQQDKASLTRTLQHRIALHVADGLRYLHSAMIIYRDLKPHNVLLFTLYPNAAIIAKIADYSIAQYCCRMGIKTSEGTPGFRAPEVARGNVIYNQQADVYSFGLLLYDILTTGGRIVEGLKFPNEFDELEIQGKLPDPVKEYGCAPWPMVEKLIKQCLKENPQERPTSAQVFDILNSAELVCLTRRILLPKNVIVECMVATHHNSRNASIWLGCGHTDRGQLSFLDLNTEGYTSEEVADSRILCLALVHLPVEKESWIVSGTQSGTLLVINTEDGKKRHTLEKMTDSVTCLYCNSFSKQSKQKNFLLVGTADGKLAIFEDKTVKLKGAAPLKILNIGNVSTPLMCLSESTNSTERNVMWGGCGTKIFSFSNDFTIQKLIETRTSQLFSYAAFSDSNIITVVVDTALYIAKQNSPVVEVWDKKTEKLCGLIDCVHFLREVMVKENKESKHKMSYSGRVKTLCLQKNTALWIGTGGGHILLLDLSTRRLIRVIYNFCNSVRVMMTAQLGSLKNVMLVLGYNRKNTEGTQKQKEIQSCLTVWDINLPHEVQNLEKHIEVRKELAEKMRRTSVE

RIOK1 = target: T16, RIOK1 (Homo sapiens, UniProt Q9BRS2); test: KINOMEscan; conditions: read-out: %Ctrl @ 10000nM
T16 construct: purchased DiscoverX KINOMEscan

CDC2L1 = target: T17, CDC2L1 (Homo sapiens, UniProt P21127); test: KINOMEscan; conditions: read-out: %Ctrl @ 10000nM
T17 construct: purchased DiscoverX KINOMEscan

CAMK2A = target: T18, CAMK2A (Homo sapiens, UniProt Q9UQM7); test: KINOMEscan; conditions: read-out: %Ctrl @ 10000nM
T18 construct: purchased DiscoverX KINOMEscan

PKAC-alpha = target: T19, PKAC-alpha (Homo sapiens, UniProt P17612); test: KINOMEscan; conditions: read-out: %Ctrl @ 10000nM
T19 construct: purchased DiscoverX KINOMEscan

MEK5 = target: T20, MEK5 (Homo sapiens, UniProt Q13163); test: KINOMEscan; conditions: read-out: %Ctrl @ 10000nM
T20 construct: purchased DiscoverX KINOMEscan

p38-alpha = target: T21, p38-alpha (Homo sapiens, UniProt Q16539); test: KINOMEscan; conditions: read-out: %Ctrl @ 10000nM
T21 construct: purchased DiscoverX KINOMEscan

ALK = target: T22, ALK (Homo sapiens, UniProt Q9UM73); test: KINOMEscan; conditions: read-out: %Ctrl @ 10000nM
T22 construct: purchased DiscoverX KINOMEscan

CAMK4 = target: T23, CAMK4 (Homo sapiens, UniProt Q16566); test: KINOMEscan; conditions: read-out: %Ctrl @ 10000nM
T23 construct: purchased DiscoverX KINOMEscan

RAF1 = target: T24, RAF1 (Homo sapiens, UniProt P04049); test: KINOMEscan; conditions: read-out: %Ctrl @ 10000nM
T24 construct: purchased DiscoverX KINOMEscan

TGFBR1 = target: T25, TGFBR1 (Homo sapiens, UniProt P36897); test: KINOMEscan; conditions: read-out: %Ctrl @ 10000nM
T25 construct: purchased DiscoverX KINOMEscan

RIOK3 = target: T26, RIOK3 (Homo sapiens, UniProt O14730); test: KINOMEscan; conditions: read-out: %Ctrl @ 10000nM
T26 construct: purchased DiscoverX KINOMEscan

CDC2L5 = target: T27, CDC2L5 (Homo sapiens, UniProt Q14004); test: KINOMEscan; conditions: read-out: %Ctrl @ 10000nM
T27 construct: purchased DiscoverX KINOMEscan

TESK1 = target: T28, TESK1 (Homo sapiens, UniProt Q15569); test: KINOMEscan; conditions: read-out: %Ctrl @ 10000nM
T28 construct: purchased DiscoverX KINOMEscan

AMPK-alpha1 = target: T29, AMPK-alpha1 (Homo sapiens, UniProt Q13131); test: KINOMEscan; conditions: read-out: %Ctrl @ 10000nM
T29 construct: purchased DiscoverX KINOMEscan

ACVR2A = target: T30, ACVR2A (Homo sapiens, UniProt P27037); test: KINOMEscan; conditions: read-out: %Ctrl @ 10000nM
T30 construct: purchased DiscoverX KINOMEscan

PIK4CB = target: T31, PIK4CB (Homo sapiens, UniProt Q9UBF8); test: KINOMEscan; conditions: read-out: %Ctrl @ 10000nM
T31 construct: purchased DiscoverX KINOMEscan

IKK-alpha = target: T32, IKK-alpha (Homo sapiens, UniProt O15111); test: KINOMEscan; conditions: read-out: %Ctrl @ 10000nM
T32 construct: purchased DiscoverX KINOMEscan

AAK1 = target: T33, AAK1 (Homo sapiens, UniProt Q2M2I8); test: KINOMEscan; conditions: read-out: %Ctrl @ 10000nM
T33 construct: purchased DiscoverX KINOMEscan

WNK4 = target: T34, WNK4 (Homo sapiens, UniProt Q96J92); test: KINOMEscan; conditions: read-out: %Ctrl @ 10000nM
T34 construct: DNA label for qPCR (T7 phage fusion or DNA tag); purchased DiscoverX scanMAX; host or cells: E. coli BL21-derived (T7 phage) or HEK-293

GRK3 = target: T35, GRK3 (Homo sapiens, UniProt P35626); test: KINOMEscan KdELECT
T35 construct: DNA tag for qPCR (T7 phage fusion or DNA label); purchased DiscoverX KdELECT; host or cells: E. coli BL21-derived (T7 phage) or HEK-293

WNK2 = target: T36, WNK2 (Homo sapiens, UniProt Q9Y3S1); test: KINOMEscan; conditions: read-out: %Ctrl @ 10000nM
T36 construct: DNA label for qPCR (T7 phage fusion or DNA tag); purchased DiscoverX scanMAX; host or cells: E. coli BL21-derived (T7 phage) or HEK-293

[2] = target: T37, RSK1(Kin.Dom.2-C-terminal) (Homo sapiens, UniProt Q15418); test: KINOMEscan; conditions: read-out: %Ctrl @ 10000nM
T37 construct: RSK1(Kin.Dom.2-C-terminal); purchased DiscoverX KINOMEscan
T37 sequence (Q15418 392-735 limits assumed): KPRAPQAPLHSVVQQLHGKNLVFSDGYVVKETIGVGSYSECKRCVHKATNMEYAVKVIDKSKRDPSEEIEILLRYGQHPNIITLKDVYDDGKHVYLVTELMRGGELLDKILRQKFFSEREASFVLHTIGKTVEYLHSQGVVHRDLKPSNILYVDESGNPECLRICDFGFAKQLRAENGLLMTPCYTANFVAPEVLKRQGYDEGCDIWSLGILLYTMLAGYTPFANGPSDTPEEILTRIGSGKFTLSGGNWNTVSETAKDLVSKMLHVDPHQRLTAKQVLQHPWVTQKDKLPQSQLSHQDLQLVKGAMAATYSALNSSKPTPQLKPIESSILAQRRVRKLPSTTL

TLK1 = target: T38, TLK1 (Homo sapiens, UniProt Q9UKI8); test: KINOMEscan; conditions: read-out: %Ctrl @ 10000nM
T38 construct: purchased DiscoverX KINOMEscan
T38 sequence (Q9UKI8 whole entry): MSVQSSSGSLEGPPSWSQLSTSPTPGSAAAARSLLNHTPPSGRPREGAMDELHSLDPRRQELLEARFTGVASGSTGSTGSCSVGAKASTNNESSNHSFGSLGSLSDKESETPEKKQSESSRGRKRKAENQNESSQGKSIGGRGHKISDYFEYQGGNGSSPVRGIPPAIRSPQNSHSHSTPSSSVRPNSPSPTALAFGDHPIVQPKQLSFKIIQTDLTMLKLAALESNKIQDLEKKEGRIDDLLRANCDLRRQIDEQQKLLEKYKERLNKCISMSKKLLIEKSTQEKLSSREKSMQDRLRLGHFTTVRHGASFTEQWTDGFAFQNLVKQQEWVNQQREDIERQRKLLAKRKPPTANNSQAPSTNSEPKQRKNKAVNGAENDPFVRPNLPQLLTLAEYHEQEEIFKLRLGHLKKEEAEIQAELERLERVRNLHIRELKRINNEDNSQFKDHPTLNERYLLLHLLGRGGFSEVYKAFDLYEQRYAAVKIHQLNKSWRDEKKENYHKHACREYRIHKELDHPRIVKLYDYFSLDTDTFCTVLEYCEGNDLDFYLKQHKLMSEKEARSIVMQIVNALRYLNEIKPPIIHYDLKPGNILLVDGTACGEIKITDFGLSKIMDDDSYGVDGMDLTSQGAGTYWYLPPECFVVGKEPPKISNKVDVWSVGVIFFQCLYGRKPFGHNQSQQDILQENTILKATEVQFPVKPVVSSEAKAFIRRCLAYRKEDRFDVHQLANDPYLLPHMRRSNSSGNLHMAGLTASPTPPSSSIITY

CAMK2B = target: T39, CAMK2B (Homo sapiens, UniProt Q13554); test: KINOMEscan; conditions: read-out: %Ctrl @ 10000nM
T39 construct: purchased DiscoverX KINOMEscan

SIK2 = target: T40, SIK2 (Homo sapiens, UniProt Q9H0K1); test: KINOMEscan; conditions: read-out: %Ctrl @ 10000nM
T40 construct: DNA tag for qPCR (T7 phage fusion or DNA label); purchased DiscoverX KdELECT; host or cells: E. coli BL21-derived (T7 phage) or HEK-293

Work on `CC(C)c1ccc(CC(=O)N2CCN(c3ccc(C#N)nn3)CC2)cc1` [PZ-2891, 6-(4-(2-(4-isopropylphenyl)acetyl)piperazin-1-yl)pyridazine-3-carbonitrile] yielded a remaining binding at 10 µM (FLT4) of 91%, a remaining binding at 10 µM (RET) of 74% and a remaining binding at 10 µM (MKNK1) of 97%. For the same compound, the remaining binding at 10 µM (INSR) was 84%, the remaining binding at 10 µM (EGFR(L858R,T790M)) was 98% and the remaining binding at 10 µM (KIT(V559D,T670I)) was 94%. The remaining binding at 10 µM (SNRK) was 85%, the remaining binding at 10 µM (STK16) was 98% and the remaining binding at 10 µM (MYO3B) was 88%. For the same compound, the remaining binding at 10 µM (ANKK1) was 78%, the remaining binding at 10 µM (MEK2) was 80% and the remaining binding at 10 µM (PIK3CA(E545K)) was 65%. For the same compound, the remaining binding at 10 µM (ZAP70) was 96%, the remaining binding at 10 µM [1] was 97% and the remaining binding at 10 µM (LRRK2(G2019S)) was 100%. The remaining binding at 10 µM (RIOK1) was 100%, the remaining binding at 10 µM (CDC2L1) was 95% and the remaining binding at 10 µM (CAMK2A) was 98%. It also gave a remaining binding at 10 µM (PKAC-alpha) of 87%, a remaining binding at 10 µM (MEK5) of 69% and a remaining binding at 10 µM (p38-alpha) of 100%. The remaining binding at 10 µM (ALK) was 100%, the remaining binding at 10 µM (CAMK4) was 89% and the remaining binding at 10 µM (RAF1) was 85%. It also gave a remaining binding at 10 µM (TGFBR1) of 99%, a remaining binding at 10 µM (RIOK3) of 100% and a remaining binding at 10 µM (CDC2L5) of 81%. It also gave a remaining binding at 10 µM (TESK1) of 86%, a remaining binding at 10 µM (AMPK-alpha1) of 92% and a remaining binding at 10 µM (ACVR2A) of 100%. For the same compound, the remaining binding at 10 µM (PIK4CB) was 84%, the remaining binding at 10 µM (IKK-alpha) was 100% and the remaining binding at 10 µM (AAK1) was 84%. The remaining binding at 10 µM (WNK4) was 69%, the Kd (GRK3) was greater than 30 µM and the remaining binding at 10 µM (WNK2) was 87%. For the same compound, the remaining binding at 10 µM [2] was 64%, the remaining binding at 10 µM (TLK1) was 72% and the remaining binding at 10 µM (CAMK2B) was 88%. It also gave a remaining binding at 10 µM (SIK2) of 9.5%.
